# In patent US9420797B2, “Method for preparing biocidal aqueous compositions” (BROMINE COMPOUNDS LTD., priority 2012, dated 2016):
# Experiments:
# [1] = system: Inoculum of bacteria (Activated sludge taken from Domestic Waste Water treatment Plant—Haifa); assay: Microbial efficacy (% kill) under different TOC loading, activated sludge bacteria, pour plate count on R2A agar; assay type: cell-based; details: contact time 30 min, pH 7
# Source text: Inoculum of bacteria (Activated sludge taken from Domestic Waste Water treatment Plant-Haifa). R2A agar for general counting. Tryptone, in amounts of either 0.025, or 0.119 or 0.239 g solid tryptone, was weighed and dissolved in 1 liter of buffer. Neutralization solution (NaHSO4). Chlorourea solution, prepared from aq. urea hydrochloride (consisting of 5.8% HCl and 38.2% urea, Wt %) and a 12.9% aq NaOCl as Cl2, Wt %); Urea, HCl:NaOCl 4:1:1 molar ratio. The biocidal efficacy of the antifouling composition at different organic loads of 0, 10, 30 and 50 ppm TOC, was examined under different biocidal concentrations (2.5, 5 and 10 ppm) at pH 7. 1) 1 ml of inoculum was added to tryptone solutions (placed in 3 erlenmeyer flasks, 100 ml each, with different concentrations of TOC-0, 10, 30 and 50 ppm). 2) 1 ml of each sample was inoculated on […] agar (pour plate method). The result stands for the bacteria count at zero time. 3) For each of the tryptone concentrations (0, 10, 30, 50 ppm TOC) an inoculum of bacteria (1 ml) and the appropriate biocide concentration were added. 4) After 30 and 60 min. of shaking (100 rpm), 1 ml of each sample was transferred to a tube filled with 9 ml of the neutralization solution. An aliquot of 1 ml was taken from this solution and added to another tube containing 9 ml of buffer solution. The solution was mixed under vortex. This operation was repeated 4 more times. 5) 1 ml from the two lowest dilutions was inoculated on a […] agar (by the pour plate method). 6) After the plates were incubated at 25° C. for 5-7 days, the bacteria count was recorded.
# [2] = system: Pseudomonas aeruginosa (ATCC 15442) entrapped in alginate gel beads; assay: Biocidal activity against simulated biofilm (bacteria entrapped in alginate gel beads), surviving CFU; details: contact time 24 hours, count at time 0 1.40E+07
compound,measurement,setting,value
"OCl [NaOCl, sodium hypochlorite]",% Kill,"[1]; TOC 0 ppm, biocide 2.5 ppm as Cl2",98.8%
same,% Kill,"[1]; TOC 0 ppm, biocide 5 ppm as Cl2",99.6%
same,% Kill,"[1]; TOC 0 ppm, biocide 10 ppm as Cl2",99.9%
same,% Kill,"[1]; TOC 10 ppm, biocide 2.5 ppm as Cl2",37.7%
same,% Kill,"[1]; TOC 10 ppm, biocide 5 ppm as Cl2",97.8%
same,% Kill,"[1]; TOC 10 ppm, biocide 10 ppm as Cl2",99.5%
same,% Kill,"[1]; TOC 30 ppm, biocide 2.5 ppm as Cl2",11.6%
same,% Kill,"[1]; TOC 30 ppm, biocide 5 ppm as Cl2",78.2%
same,% Kill,"[1]; TOC 30 ppm, biocide 10 ppm as Cl2",93.6%
same,% Kill,"[1]; TOC 50 ppm, biocide 2.5 ppm as Cl2",24.1%
same,% Kill,"[1]; TOC 50 ppm, biocide 5 ppm as Cl2",49.2%
same,% Kill,"[1]; TOC 50 ppm, biocide 10 ppm as Cl2",91.7%
same,survival of bacteria (CFU),[2]; biocide 0.5 ppm as Cl2,3.6E+06 CFU
same,survival of bacteria (CFU),[2]; biocide 1 ppm as Cl2,2.53E+06 CFU
same,survival of bacteria (CFU),[2]; biocide 2.5 ppm as Cl2,1.00E+00 CFU
same,survival of bacteria (CFU),[2]; biocide 5 ppm as Cl2,1.00E+00 CFU
